In patent publication US7853319B2, “Method and system for detecting electrophysiological changes in pre-cancerous and cancerous tissue and epithelium” (Epi-Sci, LLC, priority 2005, dated 2010):
Like-named read-outs stand apart in the source and are kept apart here.

What was measured:
distal colon = conditions: administered over the same period (four weeks) as carcinogen; cited from earlier work
[1] = tested on: histologically "normal" colonic epithelium; conditions: cited from earlier work
[2] = tested on: apical K+ channels of premalignant human mucosa (distal colon); assay: Short circuit current of colonic mucosa ex vivo in Ussing chambers, premalignant mucosa; conditions: assuming complete block
Protocol: (§1) The potassium permeability of the apical membrane of human colonic mucosa (P^Ka) was determined in surgical specimens of controls and grossly normal-appearing mucosa obtained 10-30 cm proximal to colorectal adenocarcinomas. The mucosa was mounted in Ussing chambers and the basolateral membrane resistance and voltage were nullified by elevating the K^+ in the serosal bathing solution. The apical sodium (Na^+) conductance was blocked with 0.1 mM amiloride. This protocol reduces the equivalent circuit model of the epithelium to an apical membrane conductance and electromotive force in parallel with the paracellular pathway as has been verified by microelectrode studies. […] In cancer-bearing colon the reduction in Isc is to −65 μA/cm^2. The serosal bath was remained constant at 125 mM [K].
(§2) Because the voltage across the apical membrane is zero under these conditions and the paracellular pathway is nonselective, the P^Ka (apical potassium permeability) can be calculated using the Fick equation i.e., Isc=F·P^Ka·Δ[K] where F is the Faraday constant and Δ[K] is the concentration difference for K^+ across the epithelium. […] P^Ka could also be calculated for the change in Isc when the K^+ channels were blocked with TEA, assuming complete block.

[3] = tested on: apical K+ channels of human colonic epithelium (normal colon); assay: Short circuit current of colonic mucosa ex vivo in Ussing chambers, normal colon (controls)
Protocol: as §1, §2

breast epithelium = conditions: 20 μM luminal amiloride, cited from earlier work
[4] = tested on: malignant human breast epithelial cells; assay: Transepithelial potential of monolayers in modified Ussing chambers, malignant epithelia; format: cell-based
Protocol: (§3) It should be noted that the instantaneous response, illustrated in FIG. 8, is greater in malignant epithelia, whereas the chronic or sustained exposure to estradiol results in a lower increase in TEP (transepithelial electropotential) in malignant cells. Concurrent measurement of surface electropotential and impedance allow the more accurate diagnosis of cancer. […] The cells were grown as monolayers on Millipore filters and grew to confluence in 7 to 10 days. The epithelia were then mounted in modified Ussing chambers and the TEP was measured using a voltage clamp. Increasing doses of estradiol between 0 and 0.8 μM were added (x-axis). The transepithelial potential was measured after each addition and the TEP was measured (y-axis). The different dose response is apparent for benign and malignant epithelia. Malignant epithelia have a lower TEP but undergo an instantaneous increase in TEP of approximately 9 mV (becomes more electronegative and reaches a level of <−6 mV) after exposure to only 0.1 μM estradiol and then depolarize to approximately −2 mV with increasing doses of estradiol up to about 0.5 μM.

[5] = tested on: benign breast epithelial cells; assay: Cell membrane potential (ψ) with potentiometric fluorescent probe, benign cells; format: cell-based, human; conditions: estradiol added to the culture media; approximately −50 mV in its absence
Protocol: (§4) Measurements were made using a potentiometric fluorescent probe, and ratiometric measurements, which are calibrated using valinomycin and [K^+]-gradients. ψs were measured in the presence (closed circles) and absence (open circles) of estradiol (the active metabolite of estrogen). Each symbol is the mean measurement. The upper error bar is the standard error of the mean, and the lower error bar is the 95% confidence level for the observations. The addition of estrogen to cultured breast epithelial cells results in an instantaneous increase in ψ (data not shown) as well as the transepithelial potential see FIG. 8. Transepithelial potential (VT) of an epithelium is the sum of the apical (luminal) cell membrane potential (VA) and the basolateral (abluminal) cell membrane potential (VBL). Therefore VT=VA+VBL (changes in VA and/or VBL will therefore alter VT or transepithelial potential). […] Malignant and transformed cells have a ψ of between −31 and −35 mV in the absence of estradiol and […] when estradiol is present in the culture medium.

breast tissue = assay: Electrophysiological response of breast tissue after sublingual 17-β-estradiol; format: in vivo, human; conditions: sublingual administration, 4 mg
Protocol: In one method of the present invention, estradiol is introduced directly into the duct or systemically following sublingual administration of 17-β-estradiol (4 mg). This agent produces a rapid response, which peaks at approximately 20 minutes. The electrophysiological response depends, in part, on the stage of the patient's menstrual cycle, as well as the condition of the breast tissue. Specifically, in normal breast tissue, a rise in TEP will occur during the follicular (or early) phase. In pre-cancerous or cancerous tissue, this response is abrogated.

[6] = tested on: Malignant and transformed cells (human breast epithelial cells); assay: Cell membrane potential (ψ) with potentiometric fluorescent probe, malignant and transformed cells; format: cell-based; conditions: estradiol present in the culture medium; −31 to −35 mV in its absence
Protocol: as §4

[7] = tested on: benign human breast epithelial cells; assay: Transepithelial potential of monolayers in modified Ussing chambers, benign epithelia; format: cell-based; conditions: then remains persistently elevated
Protocol: as §3

[8] = after exposure to 0.1 μM estradiol

Question: Which “effect on transepithelial potential (VT)” value (distal colon) does the source give for `O=c1[nH]cc(F)c(=O)[nH]1` [5-fluorouracil] here?
Answer: did not cause a reduction in VT

Question: What does the source list for `CNNC` [DMH, 1,2 dimethylhydrazine]?
Answer: VA (apical membrane voltage) ([1]; after 6 weeks of DMH treatment, from −74.9 mV): −61.4 mV; VA (apical membrane voltage) ([1]; by 20 weeks of DMH treatment): −34 mV

Question: Which “apical K+ permeability (P^Ka) calculated from change in Isc on TEA block” value [2] does the source give for `CC[N+](CC)(CC)CC` [TEA] here?
Answer: 3.8 ×10⁻⁶ cm/s

Question: And the “effect on short circuit current (Isc)” value ([3]; 30 mM mucosal TEA, 0.1 mM amiloride, elevated serosal K+, normal colon)?
Answer: abrupt increase in Isc

Question: What about the “apical K+ permeability (P^Ka) calculated from change in Isc on TEA block” value ([3]; controls, assuming complete block) of the same compound?
Answer: 6.4 ×10⁻⁶ cm/s

Question: With `N=C(N)NC(=O)c1nc(Cl)c(N)nc1N` [amiloride] as the compound, how does the “depolarization of the transepithelial potential (change)” value (breast epithelium; baseline −5.9±0.5 mV (mean±SEM)) read?
Answer: +3.1±0.5 mV

Question: And the “increase in transepithelial resistance” value (breast epithelium)?
Answer: 17%

Question: For `C[C@]12CC[C@@H]3c4ccc(O)cc4CC[C@H]3[C@@H]1CC[C@@H]2O` [estradiol, 17-β-estradiol], which TEP level reached [4, 8] is on record?
Answer: < −6 mV

Question: What about the “instantaneous increase in TEP” value [4, 8] of the same compound?
Answer: approximately 9 mV

Question: What about the “TEP after depolarization with increasing doses” value ([4]; increasing doses of estradiol up to about 0.5 μM) of the same compound?
Answer: approximately −2 mV

Question: And the “cell membrane potential (ψ)” value [5]?
Answer: ~−70 mV

Question: And the “time to peak of electrophysiological response” value (breast tissue)?
Answer: approximately 20 minutes

Question: What about the “cell membrane potential (ψ)” value [6] of the same compound?
Answer: approximately 50 mV

Question: And the “estradiol dose at which TEP response peaks” value [7]?
Answer: ~0.3 µM
